According to PMC5766581, “NF-κB inducing kinase is a therapeutic target for systemic lupus erythematosus” (Nature Communications, 2018):
Entries after “also recorded” stand apart in the source; their conditions may differ.

Tests used:
[1] = system: nuclear p52 (non-canonical NF-κB signaling); experiment: High content nuclear p52 imaging, anti-LTβR-stimulated HeLa cells; format: cell-based, human; settings: Homo sapiens, anti-LTβR induced, mean ± SD
Method: The HeLa cell line was used to define the cellular selectivity of NIK inhibitors toward inhibition of classical vs. non-classical NF-κB signaling using high content cellular imaging assays. For the nuclear translocation assay p52 (non-canonical NF-κB signaling), HeLa cells were treated with different concentrations of compounds previously diluted in DMSO (final [DMSO] = 0.2% in all wells) in DMEM medium (10% FBS, 2 mM Glutamine) and then stimulated with 300 ng/mL of an anti-lymphotoxin beta receptor antibody for 4.5 h. In the REL-A nuclear translocation assay, HeLa cells were incubated with compounds for 4 h 50 min before stimulating them with 2 ng/mL TNF (R&D Systems) for 10 min. Cells were fixed with 4% paraformaldehyde, permeabilized by adding 0.1% Triton X-100 in phosphate buffered saline, and then are incubated with either 2 μg/mL anti-p52 antibody or 400 ng/mL anti-REL-A (p65) antibody. Finally, the cells are incubated with an Alexa488-labeled secondary antibody (Invitrogen) and DRAQ5 DNA stain (Biostatus). Imaging was carried out using an Opera reader (Perkin Elmer) and data were analyzed with Acapella software (Perkin Elmer). The p52 or REL-A translocation into the nucleus is quantified by the ratio of the nuclear to cytoplasmic signal intensity.

TTK = target: T1, TTK (Homo sapiens, UniProt P33981); experiment: SelectScreen kinase panel; format: binding
T1 construct: purchased Invitrogen / ThermoFisher SelectScreen
Method: (§1) The ability of NIK to catalyze the hydrolysis of adenosine-5′-triphosphate (ATP) was monitored using the Transcreener ADP (adenosine-5′-diphosphate) assay (Bell Brook Labs, Fitchburg, WI). Purified human NIK kinase domain (a.a. 340–694) (0.5 nM) or mouse NIK kinase domain (a.a. 329–675) (1 nM) derived from a baculovirus-infected insect cell expression system was incubated with test compounds for 0.5–2 h in 50 mM HEPES buffer (pH 7.2) containing 10 mM MgCl2, 2 mM dithiothreitol, 10 μM ATP, 0.01% Triton X-100, 0.1% gamma-globulins from bovine blood, 1% dimethylsulfoxide (DMSO), 7 μg/mL ADP antibody and 5 nM ADP-MR121 633 tracer. Reactions were quenched by the addition of 20 mM EDTA and 0.01% Brij 35. The tracer bound to the antibody was displaced by the ADP generated during the NIK reaction, which caused a decrease in fluorescence polarization that was measured by laser excitation at 633 nm with a Fluorescence Correlation Spectroscopy Plus reader (Evotec AG). Equilibrium dissociation constant (Ki) values for NIK inhibitors are calculated from plots of activity vs. inhibitor concentration using Morrison’s quadratic equation that accounts for the potential of tight binding, and by also applying the conversion factor that accounted for competitive inhibition and the concentration of substrate used in the assay relative to its Michaelis constant (Km). The Ki values with hPKD1 (PKCμ) were determined using the same assay conditions as for NIK. Ki measurements for hKHS1 and hLRRK2, as well as broad kinase selectivity profiling for SMI1, were carried out by Invitrogen using their SelectScreen kinase assay panel (ThermoFisher Scientific, Madison, WI). The vendor offered two types of kinase activity assays, a peptide phosphorylation assay (Z′-LYTE) and an ADP quantitation assay (Adapta), as well as one type of kinase ATP site competitive binding assay (LanthaScreen). See vendor web site for technology and protocol details for each specific kinase assay.
(§2) The average % Inhibition of each kinase is reported (Supplementary Table 1).

CAMKK2 = target: T2, CAMKK2 (Homo sapiens, UniProt Q96RR4); experiment: SelectScreen kinase panel; format: binding
T2 construct: purchased Invitrogen / ThermoFisher SelectScreen
Method: as §1, §2

ZAK = target: T3, ZAK (Homo sapiens, UniProt Q9NYL2); experiment: SelectScreen kinase panel; format: binding
T3 construct: purchased Invitrogen / ThermoFisher SelectScreen
Method: as §1, §2

SLK = target: T4, SLK (Homo sapiens, UniProt Q9H2G2); experiment: SelectScreen kinase panel; format: binding
T4 construct: purchased Invitrogen / ThermoFisher SelectScreen
Method: as §1, §2

WNK2 = target: T5, WNK2 (Homo sapiens, UniProt Q9Y3S1); experiment: SelectScreen kinase panel; format: binding
T5 construct: purchased Invitrogen / ThermoFisher SelectScreen
Method: as §1, §2

FVB mice = experiment: Imiquimod-induced FVB mouse lupus model; format: in vivo; settings: 200 mg/kg P.O. BID; Imiquimod treated FVB mice
Method: Age-matched female FVB mice were purchased from Jackson Laboratory and randomized into experimental groups upon receipt. Ten-week-old female FVB mice were treated with 10 mg of 5% Imiquimod cream (Taro Pharmaceuticals, USA, Hawthorne, N.Y.) applied to the left ear (three doses per week for the duration of the study). […] Proteinuria and survival were tracked through day 91. Plasma PK measurement was done at day 85 prior to the end of the study.

NZB/W F1 mice = experiment: rAdV-IFNα-accelerated NZB/W F1 lupus model, 4-week biomarker study; format: in vivo; settings: 180 mg/kg BID P.O.
Method: Age-matched (NZB x NZW) F1 mice were purchased from Jackson Laboratory. Fourteen to fifteen weeks old female NZB/W F1 mice were injected i.v. with 1.2 × 10^8 rAD5-CMV-IFNα (rAdV-IFNα) particles (Genentech) to accelerate disease[34],[69]. […] In efficacy studies, proteinuria and survival were tracked through day 84. A 4-week PD study was performed to measure cell subsets, serum Ig, chemokines, cytokines, and gene expression.
Kidneys were immersed in 10% neutral buffered formalin at ambient temperature for 24 h, then paraffin-embedded using routine methods. Four micron histologic sections were stained with Periodic acid–Schiff (PAS) for evaluation of glomerulonephritis and hematoxylin and eosin (H&E) for visual evaluation of interstitial inflammation by light microscopy. Scoring by the pathologist was performed in a blinded fashion. Glomerulonephritis severity scoring was on a 4-point semi-quantitative scale: “0” – normal or mild global lesions in <50% of glomeruli, “1”—global lesions in > 50% of glomeruli, <20% of which are severe (defined as >1 segment with <3 patent capillaries), “2”—global lesions in >50% of glomeruli, 20–80% of which are severe, and “3”— >80% of glomeruli with severe global lesions. Chronic pyelitis, cortical periarteritis, and tubulointerstitial nephritis severity was determined by blinded disease scoring. Severity scores for tubulointerstitial nephritis, periarteritis, and pyelitis were all on 4-point semiquantitative scales: “0”—no significant inflammation, “1”—sparse or focal inflammatory infiltrates, “2”—occasional moderately sized inflammatory infiltrates, and “3”—frequent large inflammatory infiltrates. Proteinuria measurements were done by dipstick (Multistix, Bayer Diagnostics). Protein concentration was assigned a proteinuria score with trace = […] = 1, 100 mg/dl = 2, >300 mg/dl = 4, and dead mice = 5.

C57BL/6 mice = experiment: Seven-day in vivo B cell survival model; set-up: species or system mouse

T3 sequence (Q9NYL2 whole entry): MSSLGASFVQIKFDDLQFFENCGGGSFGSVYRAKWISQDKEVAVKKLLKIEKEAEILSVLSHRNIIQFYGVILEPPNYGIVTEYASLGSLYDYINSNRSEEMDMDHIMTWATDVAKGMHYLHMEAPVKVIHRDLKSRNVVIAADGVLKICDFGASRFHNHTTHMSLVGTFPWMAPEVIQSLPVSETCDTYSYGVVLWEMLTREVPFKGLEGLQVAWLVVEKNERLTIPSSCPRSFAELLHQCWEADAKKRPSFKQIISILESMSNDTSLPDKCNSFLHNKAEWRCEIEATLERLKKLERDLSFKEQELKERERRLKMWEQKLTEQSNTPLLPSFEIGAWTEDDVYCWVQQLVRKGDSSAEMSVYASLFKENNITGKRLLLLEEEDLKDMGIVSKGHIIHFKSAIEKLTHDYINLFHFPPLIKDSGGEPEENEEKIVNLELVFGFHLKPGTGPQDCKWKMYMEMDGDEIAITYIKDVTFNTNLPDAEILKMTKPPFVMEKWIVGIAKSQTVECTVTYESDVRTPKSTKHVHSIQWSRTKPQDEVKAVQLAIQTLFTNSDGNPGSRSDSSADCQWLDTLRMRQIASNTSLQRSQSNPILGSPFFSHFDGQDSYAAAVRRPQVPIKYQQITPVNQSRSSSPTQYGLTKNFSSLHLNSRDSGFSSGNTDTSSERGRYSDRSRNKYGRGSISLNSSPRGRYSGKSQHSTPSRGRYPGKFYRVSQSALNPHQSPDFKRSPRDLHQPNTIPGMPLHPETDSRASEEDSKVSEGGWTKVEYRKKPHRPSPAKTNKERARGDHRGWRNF
T1 sequence (P33981 whole entry): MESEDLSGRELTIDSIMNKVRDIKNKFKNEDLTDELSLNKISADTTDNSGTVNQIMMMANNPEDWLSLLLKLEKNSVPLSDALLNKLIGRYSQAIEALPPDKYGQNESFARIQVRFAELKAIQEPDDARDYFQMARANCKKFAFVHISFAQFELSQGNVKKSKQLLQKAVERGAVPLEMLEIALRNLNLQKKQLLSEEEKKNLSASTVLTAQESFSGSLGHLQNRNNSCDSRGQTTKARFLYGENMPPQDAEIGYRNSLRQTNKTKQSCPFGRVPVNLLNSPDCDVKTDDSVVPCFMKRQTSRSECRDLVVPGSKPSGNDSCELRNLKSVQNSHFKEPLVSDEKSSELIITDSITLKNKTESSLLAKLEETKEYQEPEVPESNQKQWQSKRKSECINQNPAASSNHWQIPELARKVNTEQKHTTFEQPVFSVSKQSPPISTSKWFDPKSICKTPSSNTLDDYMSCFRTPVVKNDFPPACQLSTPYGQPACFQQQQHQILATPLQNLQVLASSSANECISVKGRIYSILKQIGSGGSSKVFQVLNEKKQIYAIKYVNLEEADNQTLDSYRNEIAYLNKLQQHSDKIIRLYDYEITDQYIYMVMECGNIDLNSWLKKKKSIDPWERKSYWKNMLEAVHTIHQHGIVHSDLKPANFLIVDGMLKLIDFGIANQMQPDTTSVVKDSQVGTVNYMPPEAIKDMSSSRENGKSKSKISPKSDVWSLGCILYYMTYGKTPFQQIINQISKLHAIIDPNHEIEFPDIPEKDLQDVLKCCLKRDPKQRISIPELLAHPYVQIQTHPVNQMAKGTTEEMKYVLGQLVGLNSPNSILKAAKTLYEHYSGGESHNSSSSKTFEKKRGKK
T2 sequence (Q96RR4 whole entry): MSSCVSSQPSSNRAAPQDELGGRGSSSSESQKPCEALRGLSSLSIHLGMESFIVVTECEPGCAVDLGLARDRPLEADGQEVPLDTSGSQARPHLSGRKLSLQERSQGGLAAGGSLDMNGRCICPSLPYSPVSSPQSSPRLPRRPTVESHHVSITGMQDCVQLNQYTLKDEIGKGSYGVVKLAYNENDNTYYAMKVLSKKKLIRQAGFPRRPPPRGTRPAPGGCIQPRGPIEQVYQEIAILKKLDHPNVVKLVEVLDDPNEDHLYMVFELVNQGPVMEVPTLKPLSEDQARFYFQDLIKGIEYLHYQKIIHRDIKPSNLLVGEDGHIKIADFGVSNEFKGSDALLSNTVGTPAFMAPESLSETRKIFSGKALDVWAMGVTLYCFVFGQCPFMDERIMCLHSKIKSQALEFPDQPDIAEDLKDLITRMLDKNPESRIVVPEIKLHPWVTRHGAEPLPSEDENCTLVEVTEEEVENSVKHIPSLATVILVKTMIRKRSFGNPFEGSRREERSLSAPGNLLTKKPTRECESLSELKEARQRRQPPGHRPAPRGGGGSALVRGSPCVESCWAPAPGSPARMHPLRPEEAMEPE
T4 sequence (Q9H2G2 whole entry): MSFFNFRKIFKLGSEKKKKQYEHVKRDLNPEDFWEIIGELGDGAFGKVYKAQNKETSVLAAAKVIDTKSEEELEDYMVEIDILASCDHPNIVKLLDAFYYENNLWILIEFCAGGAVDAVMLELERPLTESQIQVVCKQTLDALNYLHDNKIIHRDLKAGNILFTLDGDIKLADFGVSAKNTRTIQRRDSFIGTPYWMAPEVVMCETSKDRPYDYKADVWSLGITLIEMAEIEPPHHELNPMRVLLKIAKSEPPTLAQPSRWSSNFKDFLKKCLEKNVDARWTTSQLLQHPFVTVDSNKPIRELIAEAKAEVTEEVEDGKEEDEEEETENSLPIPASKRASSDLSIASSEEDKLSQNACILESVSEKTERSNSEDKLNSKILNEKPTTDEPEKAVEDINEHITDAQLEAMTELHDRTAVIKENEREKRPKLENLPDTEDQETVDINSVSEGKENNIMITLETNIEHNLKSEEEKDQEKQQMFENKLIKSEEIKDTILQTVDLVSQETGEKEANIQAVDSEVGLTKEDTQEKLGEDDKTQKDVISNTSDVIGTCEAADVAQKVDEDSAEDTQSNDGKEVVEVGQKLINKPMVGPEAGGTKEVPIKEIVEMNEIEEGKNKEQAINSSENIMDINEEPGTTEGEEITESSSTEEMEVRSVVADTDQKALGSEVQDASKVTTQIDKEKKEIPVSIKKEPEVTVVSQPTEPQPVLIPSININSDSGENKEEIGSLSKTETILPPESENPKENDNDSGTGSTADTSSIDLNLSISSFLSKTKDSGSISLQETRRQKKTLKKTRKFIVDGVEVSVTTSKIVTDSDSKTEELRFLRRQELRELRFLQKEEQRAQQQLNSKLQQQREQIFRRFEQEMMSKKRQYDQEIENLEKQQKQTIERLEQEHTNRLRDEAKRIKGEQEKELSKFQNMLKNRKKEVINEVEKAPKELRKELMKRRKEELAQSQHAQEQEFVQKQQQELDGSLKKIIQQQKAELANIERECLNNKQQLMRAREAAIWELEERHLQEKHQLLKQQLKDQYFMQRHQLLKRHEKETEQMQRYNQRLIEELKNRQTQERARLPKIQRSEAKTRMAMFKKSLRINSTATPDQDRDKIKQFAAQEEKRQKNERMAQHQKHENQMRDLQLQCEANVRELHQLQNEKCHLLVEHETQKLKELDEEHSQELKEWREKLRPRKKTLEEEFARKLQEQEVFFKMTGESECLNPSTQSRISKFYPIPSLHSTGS

In the case of `COc1cc(C(N)=O)nc(-c2cccc(C#C[C@]3(O)CCN(C)C3=O)c2)c1` [NIK SMI1], the IC50 [1] is reported as 70 nM, the inhibition at 1 µM (TTK) is reported as 13.2% and the inhibition at 1 µM (CAMKK2) is reported as 1.1%. For the same compound, the inhibition at 1 µM (ZAK) was -0.8%, the inhibition at 1 µM (SLK) was 2.6% and the inhibition at 1 µM (WNK2) was 1.7%. For the same compound, the survival (FVB mice) was “efficacious; also recorded: improved survival”, the “frequency and numbers of splenic B cells, germinal center B cells and plasma cells” value (NZB/W F1 mice; 4 weeks) was “decreased” and the “frequency and numbers of splenic T effector memory (TEM) and T follicular helper (TFH) cells” value (NZB/W F1 mice; 4 weeks) was “significantly reduced”. For the same compound, the “frequency and numbers of total CD4+ T-cells” value (NZB/W F1 mice; 4 weeks) was “did not affect”, the “histopathologic scores of glomerulonephritis” value (NZB/W F1 mice; 4 weeks) was “reduced” and the “kidney expression of CCL9, CCL2, CXCL13 and CXCL11” value (NZB/W F1 mice; 4 weeks) was “reduced”. The “serum CXCL16” value (NZB/W F1 mice; 4 weeks) was “significantly reduced”, the “serum TNF and IL-12p40” value (NZB/W F1 mice; 4 weeks) was “reduced” and the “spleen weight or total splenocyte count” value (NZB/W F1 mice; 4 weeks) was “did not have a substantial effect”. The “splenic expression of ICOS and IL-21” value (NZB/W F1 mice; 4 weeks) was “reduced”, the “splenic expression of Immunoglobulin J (Igj)” value (NZB/W F1 mice; 4 weeks) was “strongly suppressed” and the “suppression of serum anti-histone autoantibodies” value (NZB/W F1 mice; 4 weeks, vs BR3-mIgG2a) was “superior to BAFF blockade”. For the same compound, the “terminal exposure vs in vitro IC70” value (NZB/W F1 mice; 12 hours after final dose) was “at or above the in vitro-determined IC70 concentration”, the “splenic cellularity, frequency and absolute numbers of total B2, marginal zone and follicular B cells in the spleen” value (C57BL/6 mice; 6-400 mg/kg BID oral, 7 days) was “dose-dependently reduced” and the “reduction of serum IgA levels” value (C57BL/6 mice; after 1 week of treatment, oral BID) was “approximately 50%”.
